Measurements published in the NIST ThermoML archive (doi:10.1016/j.tca.2015.06.017).
Numbers after ± are expanded uncertainties.

Assay: xn = mol fraction of the nth substance listed
Conditions: 303.15 K, Liquid, Vibrating tube method

`CCCCCl` [1-chlorobutane] + CCCCCCC gave a mass density (100 kPa, x2 = 0.0508) of 860.95 ± 0.24 kg/m3, a mass density (100 kPa, x2 = 0.0994) of 847.86 ± 0.24 kg/m3 and a mass density (100 kPa, x2 = 0.2013) of 822 ± 0.24 kg/m3. It also gave a mass density (100 kPa, x2 = 0.3015) of 798.55 ± 0.24 kg/m3, a mass density (100 kPa, x2 = 0.4008) of 777.02 ± 0.24 kg/m3 and a mass density (100 kPa, x2 = 0.5026) of 756.58 ± 0.24 kg/m3. The mass density (100 kPa, x2 = 0.6012) was 738.17 ± 0.25 kg/m3, the mass density (100 kPa, x2 = 0.7003) was 720.97 ± 0.25 kg/m3 and the mass density (100 kPa, x2 = 0.7995) was 704.97 ± 0.25 kg/m3. For the same compound, the mass density (100 kPa, x2 = 0.9011) was 689.64 ± 0.25 kg/m3, the mass density (100 kPa, x2 = 0.9494) was 682.71 ± 0.25 kg/m3 and the mass density (2000 kPa, x2 = 0.0508) was 863.1 ± 0.25 kg/m3. The mass density (2000 kPa, x2 = 0.0994) was 849.99 ± 0.25 kg/m3, the mass density (2000 kPa, x2 = 0.2013) was 824.16 ± 0.25 kg/m3 and the mass density (2000 kPa, x2 = 0.3015) was 800.7 ± 0.26 kg/m3. The mass density (2000 kPa, x2 = 0.4008) was 779.13 ± 0.26 kg/m3, the mass density (2000 kPa, x2 = 0.5026) was 758.72 ± 0.26 kg/m3 and the mass density (2000 kPa, x2 = 0.6012) was 740.28 ± 0.26 kg/m3. For the same compound, the mass density (2000 kPa, x2 = 0.7003) was 723.08 ± 0.27 kg/m3, the mass density (2000 kPa, x2 = 0.7995) was 707.04 ± 0.27 kg/m3 and the mass density (2000 kPa, x2 = 0.9011) was 691.71 ± 0.27 kg/m3. It also gave a mass density (2000 kPa, x2 = 0.9494) of 684.78 ± 0.27 kg/m3, a mass density (5000 kPa, x2 = 0.0508) of 866.34 ± 0.26 kg/m3 and a mass density (5000 kPa, x2 = 0.0994) of 853.23 ± 0.27 kg/m3. It also gave a mass density (5000 kPa, x2 = 0.2013) of 827.36 ± 0.27 kg/m3, a mass density (5000 kPa, x2 = 0.3015) of 803.89 ± 0.28 kg/m3 and a mass density (5000 kPa, x2 = 0.4008) of 782.29 ± 0.28 kg/m3. For the same compound, the mass density (5000 kPa, x2 = 0.5026) was 761.81 ± 0.29 kg/m3, the mass density (5000 kPa, x2 = 0.6012) was 743.41 ± 0.29 kg/m3 and the mass density (5000 kPa, x2 = 0.7003) was 726.22 ± 0.3 kg/m3. It also gave a mass density (5000 kPa, x2 = 0.7995) of 710.1 ± 0.3 kg/m3, a mass density (5000 kPa, x2 = 0.9011) of 694.74 ± 0.31 kg/m3 and a mass density (5000 kPa, x2 = 0.9494) of 687.8 ± 0.31 kg/m3. For the same compound, the mass density (7000 kPa, x2 = 0.0508) was 868.42 ± 0.27 kg/m3, the mass density (7000 kPa, x2 = 0.0994) was 855.3 ± 0.28 kg/m3 and the mass density (7000 kPa, x2 = 0.2013) was 829.43 ± 0.28 kg/m3. For the same compound, the mass density (7000 kPa, x2 = 0.3015) was 805.92 ± 0.29 kg/m3, the mass density (7000 kPa, x2 = 0.4008) was 784.34 ± 0.3 kg/m3 and the mass density (7000 kPa, x2 = 0.5026) was 763.83 ± 0.31 kg/m3. The mass density (7000 kPa, x2 = 0.6012) was 745.42 ± 0.31 kg/m3, the mass density (7000 kPa, x2 = 0.7003) was 728.16 ± 0.32 kg/m3 and the mass density (7000 kPa, x2 = 0.7995) was 712.06 ± 0.32 kg/m3. The mass density (7000 kPa, x2 = 0.9011) was 696.65 ± 0.33 kg/m3, the mass density (7000 kPa, x2 = 0.9494) was 689.71 ± 0.33 kg/m3 and the mass density (10000 kPa, x2 = 0.0508) was 871.51 ± 0.29 kg/m3. It also gave a mass density (10000 kPa, x2 = 0.0994) of 858.41 ± 0.29 kg/m3, a mass density (10000 kPa, x2 = 0.2013) of 832.51 ± 0.3 kg/m3 and a mass density (10000 kPa, x2 = 0.3015) of 808.97 ± 0.31 kg/m3. It also gave a mass density (10000 kPa, x2 = 0.4008) of 787.38 ± 0.32 kg/m3, a mass density (10000 kPa, x2 = 0.5026) of 766.86 ± 0.33 kg/m3 and a mass density (10000 kPa, x2 = 0.6012) of 748.41 ± 0.34 kg/m3. For the same compound, the mass density (10000 kPa, x2 = 0.7003) was 731.09 ± 0.35 kg/m3, the mass density (10000 kPa, x2 = 0.7995) was 714.97 ± 0.35 kg/m3 and the mass density (10000 kPa, x2 = 0.9011) was 699.57 ± 0.36 kg/m3. For the same compound, the mass density (10000 kPa, x2 = 0.9494) was 692.59 ± 0.37 kg/m3, the mass density (20000 kPa, x2 = 0.0508) was 881.1 ± 0.33 kg/m3 and the mass density (20000 kPa, x2 = 0.0994) was 867.95 ± 0.34 kg/m3. The mass density (20000 kPa, x2 = 0.2013) was 841.94 ± 0.36 kg/m3, the mass density (20000 kPa, x2 = 0.3015) was 818.31 ± 0.38 kg/m3 and the mass density (20000 kPa, x2 = 0.4008) was 796.57 ± 0.4 kg/m3. For the same compound, the mass density (20000 kPa, x2 = 0.5026) was 775.93 ± 0.41 kg/m3, the mass density (20000 kPa, x2 = 0.6012) was 757.4 ± 0.43 kg/m3 and the mass density (20000 kPa, x2 = 0.7003) was 740.01 ± 0.44 kg/m3. For the same compound, the mass density (20000 kPa, x2 = 0.7995) was 723.78 ± 0.46 kg/m3, the mass density (20000 kPa, x2 = 0.9011) was 708.24 ± 0.47 kg/m3 and the mass density (20000 kPa, x2 = 0.9494) was 701.2 ± 0.48 kg/m3. It also gave a mass density (30000 kPa, x2 = 0.0508) of 889.77 ± 0.36 kg/m3, a mass density (30000 kPa, x2 = 0.0994) of 876.56 ± 0.38 kg/m3 and a mass density (30000 kPa, x2 = 0.2013) of 850.48 ± 0.41 kg/m3. The mass density (30000 kPa, x2 = 0.3015) was 826.73 ± 0.44 kg/m3, the mass density (30000 kPa, x2 = 0.4008) was 804.94 ± 0.46 kg/m3 and the mass density (30000 kPa, x2 = 0.5026) was 784.21 ± 0.49 kg/m3. The mass density (30000 kPa, x2 = 0.6012) was 765.55 ± 0.51 kg/m3, the mass density (30000 kPa, x2 = 0.7003) was 748.07 ± 0.53 kg/m3 and the mass density (30000 kPa, x2 = 0.7995) was 731.77 ± 0.55 kg/m3. It also gave a mass density (30000 kPa, x2 = 0.9011) of 716.14 ± 0.57 kg/m3, a mass density (30000 kPa, x2 = 0.9494) of 709.05 ± 0.58 kg/m3 and a mass density (40000 kPa, x2 = 0.0508) of 897.85 ± 0.39 kg/m3. The mass density (40000 kPa, x2 = 0.0994) was 884.61 ± 0.41 kg/m3, the mass density (40000 kPa, x2 = 0.2013) was 858.37 ± 0.45 kg/m3 and the mass density (40000 kPa, x2 = 0.3015) was 834.56 ± 0.49 kg/m3. The mass density (40000 kPa, x2 = 0.4008) was 812.66 ± 0.53 kg/m3, the mass density (40000 kPa, x2 = 0.5026) was 791.81 ± 0.56 kg/m3 and the mass density (40000 kPa, x2 = 0.6012) was 773.04 ± 0.59 kg/m3. For the same compound, the mass density (40000 kPa, x2 = 0.7003) was 755.46 ± 0.62 kg/m3, the mass density (40000 kPa, x2 = 0.7995) was 739 ± 0.65 kg/m3 and the mass density (40000 kPa, x2 = 0.9011) was 723.24 ± 0.67 kg/m3. It also gave a mass density (40000 kPa, x2 = 0.9494) of 716.11 ± 0.68 kg/m3, a mass density (50000 kPa, x2 = 0.0508) of 905.34 ± 0.42 kg/m3 and a mass density (50000 kPa, x2 = 0.0994) of 892.06 ± 0.44 kg/m3.
